In PubChem BioAssay AID686982 one finds viability and parasite load, % of control data, which are given here for three compounds.

Experiment [1] is described as follows: kinase inhibitors blocking P. berghei liver stage, confirmation, cell-based, HepG2, luciferase, host viability, known kinase inhibitors (AID 686982). Conditions: P. berghei liver stage in HepG2, luciferase, 48 h; measured here: HepG2 viability, % of control; at 10 µM; stronger effect = lower value.
Experiment [2] deals with P. berghei liver stage in HepG2, luciferase, 48 h. Described as above. Conditions: at 10 µM; stronger effect = lower value.

The structures appear in SMILES notation.

In the case of `Cc1ccc2c(-c3ccnc(Nc4ccccc4)n3)c(-c3ccc(F)cc3)nn2n1`, the viability (usually a read-out of living cells in per cent, often relative to untreated cells) in experiment [1] came to 206%. The parasite load, % of control in experiment [2] was 1.15%.

With `COc1cc[nH]c1C=C1C(=O)Nc2ccc(F)c(C#CC3(O)CCOCC3)c21`, the viability in experiment [1] turned out to be 111%. Moreover, the parasite load, % of control in experiment [2] is 1.05%.

On to `Fc1ccc(-c2c(-c3ccncc3)[nH]c3cccnc23)cc1`, for which the viability in experiment [1] came out at 163%. Besides, in experiment [2], the parasite load, % of control is 1.19%.
